Measured values taken from PMC9501280, “Anti-Inflammatory Activity of Soluble Epoxide Hydrolase Inhibitors Based on Selenoureas Bearing an Adamantane Moiety” (International Journal of Molecular Sciences, 2022).

How the values were obtained:
[1] = test system: E. coli MG1655 pXen7; assay: Constitutive lux-biosensor, general toxicity; format: cell-based, Escherichia coli; settings: compound at 1 mM; decrease ascribed to shielding of bioluminescence
Method: Importantly, all the studied compounds are poorly soluble in water and can form a suspension at 1 mM; moreover, compound 4a at concentrations above 100 μM presents a substance of dark color and is capable of the partial shielding of bioluminescence.
pColD-lux―PcolD is induced by the SOS response; pDps―Pdps is activated in the presence of DNA-oxidizing agents; pSoxS-lux―PSoxS is induced in the presence of superoxide anion radicals; pOxyR-lux―PoxyR is induced in response to the appearance of hydrogen peroxide or organic peroxides; pAlkA-lux―PalkA is induced in response to DNA alkylation. pXen7 contains P. luminescens ZM1 lux genes controlled by its own promoter, which was used as a constitutive.
The bioluminescence of cells was measured using a Synergy HT luminometer (Biotek, Winooski, VT, USA) at room temperature. Lux biosensors based on E. coli were grown to an early logarithmic phase (OD ≈ 0.1) to achieve a background luminescence approximately 100–1000 RLU at the beginning of the measurements. Lux biosensors based on B. subtilis were grown to a logarithmic phase with an optical density OD ≈ 0.6 (and background luminescence of about 10–500 RLU). Biosensor cell cultures were divided into portions of 200 μL in a 96-well plate. […] The kinetics of change in luminescence was measured at room temperature.

[2] = test system: human fibroblast cells (MRC-5); assay: MTT test with human fibroblast cells; format: cell-based; settings: MRC5, 72 h, read-out: EC50 ± SEM, MRC-5
Method: The studied compounds were added in concentrations of 1, 3, 6, 12, 25, 50, and 100 μM.
Human fibroblast cells (MRC-5) were used in this study. The cells were cultured in the DMEM medium that contained 10% embryonic calf serum in a CO2 incubator at 37 °C. The tested compounds were dissolved in DMSO and added to the cellular culture at the required concentrations. Three wells were used for each concentration. The cells that were incubated without the compounds were used as a negative control, and doxorubicin was used as the positive one. Cells were placed on 96-well microliter plates and cultivated at 37 °C in 5% CO2/95% air for 72 h. The cell viability was assessed through an MTT (3-(4,5-dimethylthiazol-2-yl)-2,5-phenyl-2H-tetrazolium bromide) conversion assay. A total of 1% MTT was added to each well. Three hours later, isopropanol was added and mixed for 15 min. Optical density (OD) of the samples was measured on a ThermoFischer multi-well spectrophotometer at a wavelength of 450 nm. […] The experimental results are given as average values obtained from three independently conducted experiments.

[3] = MTT cytotoxicity on peritoneal macrophages; format: cell-based, mice; settings: male, C57bl/6j, mouse; 24 h incubation; read-out: MTT CC50 ± SE
Method: (§1) Peritoneal macrophages (PM) were isolated from the peritoneal exudate of 30 male C57bl/6j mice. To accumulate PM, 1 mL of 3% peptone solution was injected intraperitoneally. After 3 days, the mice were euthanized by cervical dislocation. Cells of peritoneal exudate were obtained by aseptic washing of the abdominal cavity with 5 mL of sterile Hanks’s solution (+4–6 °C) without calcium and magnesium ions. The total number and viability of cells were assessed in a Goryaev counting chamber (Russia) with a 0.4% trypan blue staining (Sigma-Aldrich, St. Louis, MO, USA). The cell concentration was adjusted to 1.0 × 10^6 cells/mL in DMEM (Gibco) supplemented with 2 mM L-glutamine (Gibco), 10% heat-inactivated fetal bovine serum (BioClot, Passau, Germany), 100 U/mL penicillin and […] streptomycin (Gibco) and plated 200 μL/well in 96-well transparent plates (SPL Life Sciences Co., Ltd., Pochon, Korea). After 2 h at 37 °C in a humidified atmosphere with 5% CO2, wells were washed to remove nonadherent cells. After 24 h of incubation, 20 μL of the supernatants were substituted with 20 μL of solutions of the test compounds, followed with E. coli O127:B8 LPS (100 ng/mL final concentration) after 30 min. Experiments were run in 3 independent replicates.
(§2) The activity of lactate dehydrogenase (LDH) in a cell culture medium served as a marker of membrane permeability and cell death. Aliquots of supernatants were taken after 24 h of inoculation with test compounds, mixed with 250 μL of […] NADH solution in 54 mM phosphate-buffered saline (pH 7.5). Then, 25 μL of a 6.48 mM pyruvate solution was added to the mixture. The optical density was followed at a wavelength of 340 nm for 20 min. The MTT test was performed 24 h after the incubation of cells with the tested compounds. Briefly, 20 μL of MTT solution was added to each well and incubated at 37 °C in a humidified atmosphere containing 5% CO2 for 4 h. The culture medium was aspirated, the cells were lysed and formazan crystals dissolved in 150 μL of DMSO. The plates were shaken at room temperature for 10 min, and the optical density was measured in a microplate reader Infinite M200 PRO (Tecan Group Ltd., Männedorf, Switzerland) at a wavelength of 565 nm.

[4] = test system: C57bl/6j peritoneal macrophages; assay: MTT cytotoxicity on peritoneal macrophages; format: cell-based, mice; settings: Mus musculus, Peritoneal macrophage, read-out: EC50 ± SEM, C57bl/6j
Method: as §1, §2

[5] = test system: E. coli PQ37; assay: SOS chromotest; format: cell-based
Method: For the final safety check of selenoureas, the SOS chromotest was carried out. […] The results are presented as the mean value of induction factor I (c) ± SEM based on the results of three independent experiments, each of which included three replicates (Table 5).
The SOS chromotest was carried out according to the standard procedure, with recommended additions. The E. coli PQ37 strain was provided by P. Quillardet (Paris, France). The test compounds were dissolved in dimethyl sulfoxide (DMSO) (also used as a negative control) and added to the bacterial medium in the required concentrations; the concentration of the injected solutions was 1% by volume.

[6] = LDH release cytotoxicity on peritoneal macrophages; format: cell-based, mice; settings: male, C57bl/6j, mouse; 24 h incubation; read-out: LDH CC50 ± SE
Method: as §1
as §2, with “Briefly, 20 μL of MTT solution was added to each well and incubated at 37 °C in a humidified atmosphere containing 5% CO2 for 4 h. The culture medium was aspirated, the cells were lysed and formazan crystals dissolved in 150 μL of DMSO.” left out

## [Se]=C(Nc1ccccc1)NC12CC3CC(CC(C3)C1)C2 [4a, 1-(Adamantan-1-yl)-3-phenylselenourea]
[1]
  luminescence decrease coefficient of the pXen7 biosensor: 0.29 ± 0.08
[2]
  EC50: 3.38 ± 0.49 µM
[3]
  CC50 at 24 h: 7.5 ± 1.9 µM
[4]
  EC50: 7.5 ± 1.9 µM
[5]; SOS chromotest / lux-biosensors
  genotoxic activity (in words): does not exhibit genotoxic properties
[5]; induction factor, compound 10 µM
  I(c) ± SE, 10 µM: 1.03 ± 0.13
[5]; induction factor, compound 25 µM
  I(c) ± SE, 25 µM: 1.09 ± 0.14
[5]; induction factor, compound 50 µM
  I(c) ± SE, 50 µM: 1 ± 0.15
[5]; induction factor, compound 100 µM
  I(c) ± SE, 100 µM: 1.08 ± 0.09
[6]
  CC50 at 24 h: 29.4 ± 8.5 µM
